Assay results published in US20080194574A1, “Pyrazine Derivatives As Effective Compounds Against Infectious Diseases” (AXXIMA PHARMACEUTICALS AG, priority 2003, published 2008).

Each compound was assayed against T1, viral kinase pUL-97 (Human cytomegalovirus, UniProt P16788) (assay: UL97 kinase assay on Immobilon plate). Details: inhibition of UL 97 kinase activity; class by IC50 / % inhibition at 10 μM or 100 μM; read-out: Activity Class [A, B, C].
T1 construct: The pUL-97 gene was cloned into a baculovirus vector; GST (glutathione S-transferase) (N); made in house; host or cells: Sf9 insect cells, baculovirus
T1 sequence (P16788 whole entry): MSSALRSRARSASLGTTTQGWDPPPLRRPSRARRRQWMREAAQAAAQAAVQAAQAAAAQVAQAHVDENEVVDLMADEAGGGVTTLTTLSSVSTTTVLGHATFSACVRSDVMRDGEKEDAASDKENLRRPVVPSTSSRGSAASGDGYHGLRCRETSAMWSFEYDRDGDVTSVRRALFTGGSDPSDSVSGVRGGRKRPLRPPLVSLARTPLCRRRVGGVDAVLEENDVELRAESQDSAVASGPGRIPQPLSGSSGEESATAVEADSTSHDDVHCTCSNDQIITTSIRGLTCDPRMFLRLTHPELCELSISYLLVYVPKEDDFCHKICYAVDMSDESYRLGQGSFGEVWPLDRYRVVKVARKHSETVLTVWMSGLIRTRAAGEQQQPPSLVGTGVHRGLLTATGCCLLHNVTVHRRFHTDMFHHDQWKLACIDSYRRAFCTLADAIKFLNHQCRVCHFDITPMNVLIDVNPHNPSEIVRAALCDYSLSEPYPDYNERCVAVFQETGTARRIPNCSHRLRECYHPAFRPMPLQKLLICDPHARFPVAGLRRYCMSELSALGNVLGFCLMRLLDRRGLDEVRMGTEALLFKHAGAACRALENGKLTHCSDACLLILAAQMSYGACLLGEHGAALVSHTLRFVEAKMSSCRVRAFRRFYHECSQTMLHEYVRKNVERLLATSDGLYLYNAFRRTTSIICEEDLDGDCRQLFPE
Assay type: biochemical
Method in brief: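 Compound was titrated into a radiometric reaction of Sf9-expressed GST-UL97 kinase, incubated 1 h at 30 °C in Tris-HCl pH 7.5/MnCl2/DTT buffer before EDTA stop. MBP substrate and ATP (3 μM in the added assay buffer) were supplied with γ-[33P]ATP. Labelled product bound to Immobilon filter was washed and counted by scintillation.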

| IC50 [µM] | Structure (SMILES) |
| --- | --- |
| 1 to 10 | COc1cccc(-c2cncc(N3CCN(c4ccc(Cl)cc4)CC3)n2)c1 [compound 302, 4-(4-Chloro-phenyl)-6′-(3-methoxy-phenyl)-3,4,5,6-tetrahydro-2H-[1,2′]bipyrazinyl] |
| 1 to 10 | N#Cc1ccc(-c2cncc(N3CCN(c4ccccn4)CC3)n2)cc1 [compound 303, 4-(4-Pyridin-2-yl-3,4,5,6-tetrahydro-2H-[1,2′]bipyrazinyl-6′-yl)-benzonitrile] |
| 1 to 10 | COc1cccc(-c2cncc(N3CCN(c4ccccn4)CC3)n2)c1 [compound 304, 6′-(3-Methoxy-phenyl)-4-pyridin-2-yl-3,4,5,6-tetrahydro-2H-[1,2′]bipyrazinyl] |
| 1 to 10 | Fc1ccc(-c2cncc(N3CCN(c4ccccn4)CC3)n2)cc1 [compound 305, 6′-(4-Fluoro-phenyl)-4-pyridin-2-yl-3,4,5,6-tetrahydro-2H-[1,2′]bipyrazinyl] |
| 1 to 10 | COc1ccc(-c2cncc(N3CCN(c4ccccn4)CC3)n2)cc1OC [compound 306, 6′-(3,4-Dimethoxy-phenyl)-4-pyridin-2-yl-3,4,5,6-tetrahydro-2H-[1,2′]bipyrazinyl] |
| 1 to 10 | CC(=O)c1cccc(-c2cncc(N3CCN(c4ccccn4)CC3)n2)c1 [compound 307, 1-[3-(4-Pyridin-2-yl-3,4,5,6-tetrahydro-2H-[1,2′]bipyrazinyl-6′-yl)-phenyl]-ethanone] |
| 1 to 10 | CC(=O)c1ccc(-c2cncc(N3CCN(c4ccccn4)CC3)n2)cc1 [compound 308, 1-[4-(4-Pyridin-2-yl-3,4,5,6-tetrahydro-2H-[1,2′]bipyrazinyl-6′-yl)-phenyl]-ethanone] |
| 10 to 100 | Fc1ccc(-c2cncc(N3CCN(c4ccc(C(F)(F)F)cc4)CC3)n2)cc1 [compound 309, 6′-(4-Fluoro-phenyl)-4-(4-trifluoromethyl-phenyl)-3,4,5,6-tetrahydro-2H-[1,2′]bipyrazinyl] |
| 10 to 100 | COc1ccc(-c2cncc(N3CCN(c4ccc(C(F)(F)F)cc4)CC3)n2)cc1OC [compound 310, 6′-(3,4-Dimethoxy-phenyl)-4-(4-trifluoromethyl-phenyl)-3,4,5,6-tetrahydro-2H-[1,2′]bipyrazinyl] |
| 1 to 10 | CSc1ccc(-c2cncc(N3CCN(c4ccc(C(F)(F)F)cc4)CC3)n2)cc1 [compound 311, 6′-(4-Methylsulfanyl-phenyl)-4-(4-trifluoromethyl-phenyl)-3,4,5,6-tetrahydro-2H-[1,2′]bipyrazinyl] |
| 1 to 10 | CC(=O)c1cccc(-c2cncc(N3CCN(c4cnccn4)CC3)n2)c1 [compound 312, 1-[3-(2′,3′,5′,6′-Tetrahydro-[2,1′;4′,2″]terpyrazin-6-yl)-phenyl]-ethanone] |
| < 1 | Brc1ccc(-c2cncc(N3CCN(c4cnccn4)CC3)n2)cc1 [compound 313, 6-(4-Bromo-phenyl)-2′,3′,5′,6′-tetrahydro-[2,1′;4′,2″]terpyrazine] |
| 1 to 10 | CSc1ccc(-c2cncc(N3CCN(c4cnccn4)CC3)n2)cc1 [compound 314, 6-(4-Methylsulfanyl-phenyl)-2′,3′,5′,6′-tetrahydro-[2,1′;4′,2″]terpyrazine] |
| 1 to 10 | OCc1ccc(-c2cncc(N3CCN(c4ccc(Cl)c(Cl)c4)CC3)n2)cc1 [compound 315, {4-[4-(3,4-Dichloro-phenyl)-3,4,5,6-tetrahydro-2H-[1,2′]bipyrazinyl-6′-yl]-phenyl}-methanol] |
| 10 to 100 | Cc1ccc(N2CCN(c3cncc(-c4ccc(F)c(Cl)c4)n3)CC2)cc1C [compound 316, 6′-(3-Chloro-4-fluoro-phenyl)-4-(3,4-dimethyl-phenyl)-3,4,5,6-tetrahydro-2H-[1,2′]bipyrazinyl] |
| 10 to 100 | Cc1ccc(N2CCN(c3cncc(-c4csc5ccccc45)n3)CC2)cc1C [compound 317, 6′-Benzo[b]thiophen-3-yl-4-(3,4-dimethyl-phenyl)-3,4,5,6-tetrahydro-2H-[1,2′]bipyrazinyl] |
| 10 to 100 | c1ccc(C2CCN(c3cncc(-c4cccc5ccccc45)n3)CC2)cc1 [compound 318, 2-Naphthalen-1-yl-6-(4-phenyl-piperidin-1-yl)-pyrazine] |
| 10 to 100 | c1ccc(C2CCN(c3cncc(-c4csc5ccccc45)n3)CC2)cc1 [compound 319, 2-Benzo[b]thiophen-3-yl-6-(4-phenyl-piperidin-1-yl)-pyrazine] |
| 10 to 100 | Cc1ccc(N2CCN(c3cncc(-c4ccc5ccccc5c4)n3)CC2)c(C)c1 [compound 320, 4-(2,4-Dimethyl-phenyl)-6′-naphthalen-2-yl-3,4,5,6-tetrahydro-2H-[1,2′]bipyrazinyl] |
| 10 to 100 | Cc1ccc(N2CCN(c3cncc(-c4ccc(CO)cc4)n3)CC2)c(C)c1 [compound 321, {4-[4-(2,4-Dimethyl-phenyl)-3,4,5,6-tetrahydro-2H-[1,2′]bipyrazinyl-6′-yl]-phenyl}-methanol] |
| 1 to 10 | COc1cccc(N2CCN(c3cncc(-c4ccc5ccccc5c4)n3)CC2)c1 [compound 322, 4-(3-Methoxy-phenyl)-6′-naphthalen-2-yl-3,4,5,6-tetrahydro-2H-[1,2′]bipyrazinyl] |

| IC50 [µM] | Structure (SMILES) |
| --- | --- |
| 1 to 10 | COc1cccc(N2CCN(c3cncc(-c4ccc(CO)cc4)n3)CC2)c1 [compound 323, {4-[4-(3-Methoxy-phenyl)-3,4,5,6-tetrahydro-2H-[1,2′]bipyrazinyl-6′-yl]-phenyl}-methanol] |
| 10 to 100 | COc1cccc(N2CCN(c3cncc(-c4ccoc4)n3)CC2)c1 [compound 324, 6′-Furan-3-yl-4-(3-methoxy-phenyl)-3,4,5,6-tetrahydro-2H-[1,2′]bipyrazinyl] |
| 10 to 100 | Cc1cccc(-c2cncc(N3CCN(c4ccc(Cl)cc4)CC3)n2)c1 [compound 325, 4-(4-Chloro-phenyl)-6′-m-tolyl-3,4,5,6-tetrahydro-2H-[1,2′]bipyrazinyl] |
| 1 to 10 | Clc1ccc(N2CCN(c3cncc(-c4csc5ccccc45)n3)CC2)cc1 [compound 326, 6′-Benzo[b]thiophen-3-yl-4-(4-chloro-phenyl)-3,4,5,6-tetrahydro-2H-[1,2′]bipyrazinyl] |
| 10 to 100 | Cc1cccc(-c2cncc(N3CCN(c4ccccn4)CC3)n2)c1 [compound 327, 4-Pyridin-2-yl-6′-m-tolyl-3,4,5,6-tetrahydro-2H-[1,2′]bipyrazinyl] |
| 1 to 10 | Cc1ccc(-c2cncc(N3CCN(c4ccccn4)CC3)n2)cc1 [compound 328, 4-Pyridin-2-yl-6′-p-tolyl-3,4,5,6-tetrahydro-2H-[1,2′]bipyrazinyl] |
| 1 to 10 | Cc1cccc(-c2cncc(N3CCN(c4cnccn4)CC3)n2)c1 [compound 329, 6-m-Tolyl-2′,3′,5′,6′-tetrahydro-[2,1′;4′,2″]terpyrazine] |
| 1 to 10 | Cc1ccc(-c2cncc(N3CCN(c4cnccn4)CC3)n2)cc1 [compound 330, 6-p-Tolyl-2′,3′,5′,6′-tetrahydro-[2,1′;4′,2″]terpyrazine] |
| 10 to 100 | c1ccc2c(-c3cncc(N4CCN(c5cnccn5)CC4)n3)cccc2c1 [compound 331, 6-Naphthalen-1-yl-2′,3′,5′,6′-tetrahydro-[2,1′;4′,2″]terpyrazine] |
| < 1 | c1ccc2c(-c3cncc(N4CCN(c5cnccn5)CC4)n3)csc2c1 [compound 332, 6-Benzo[b]thiophen-3-yl-2′,3′,5′,6′-tetrahydro-[2,1′;4′,2″]terpyrazine] |
| 10 to 100 | CC(C)(C)c1ccc(-c2cncc(N3CCN(c4cnccn4)CC3)n2)cc1 [compound 333, 6-(4-tert-Butyl-phenyl)-2′,3′,5′,6′-tetrahydro-[2,1′;4′,2″]terpyrazine] |
| 10 to 100 | Fc1cc(-c2cncc(N3CCN(c4cnccn4)CC3)n2)ccc1-c1ccccc1 [compound 334, 6-(2-Fluoro-biphenyl-4-yl)-2′,3′,5′,6′-tetrahydro-[2,1′;4′,2″]terpyrazine] |
| 1 to 10 | Cc1ccc(N2CCN(c3cncc(-c4ccc5ccccc5c4)n3)CC2)cc1C [compound 335, 4-(3,4-Dimethyl-phenyl)-6′-naphthalen-2-yl-3,4,5,6-tetrahydro-2H-[1,2′]bipyrazinyl] |
| 1 to 10 | c1ccc(C2CCN(c3cncc(-c4ccsc4)n3)CC2)cc1 [compound 336, 2-(4-Phenyl-piperidin-1-yl)-6-thiophen-3-yl-pyrazine] |
| 1 to 10 | c1ccc(C2CCN(c3cncc(-c4ccc5ccccc5c4)n3)CC2)cc1 [compound 337, 2-Naphthalen-2-yl-6-(4-phenyl-piperidin-1-yl)-pyrazine] |
| 10 to 100 | Cc1cc(C)cc(-c2cncc(N3CCN(c4cccc(C)c4C)CC3)n2)c1 [compound 338, 4-(2,3-Dimethyl-phenyl)-6′-(3,5-dimethyl-phenyl)-3,4,5,6-tetrahydro-2H-[1,2′]bipyrazinyl] |
| 10 to 100 | Cc1cc(C)cc(-c2cncc(N3CCN(c4cccc(C)c4)C(C)C3)n2)c1 (stereo not drawn) [compound 339, 6′-(3,5-Dimethyl-phenyl)-3-methyl-4-m-tolyl-3,4,5,6-tetrahydro-2H-[1,2′]bipyrazinyl] |
| 10 to 100 | CN(C)c1ccc(-c2cncc(N3CCN(c4ccc(Cl)cc4)CC3)n2)cc1 [compound 340, {4-[4-(4-Chloro-phenyl)-3,4,5,6-tetrahydro-2H-[1,2′]bipyrazinyl-6′-yl]-phenyl}-dimethyl-amine] |
| 10 to 100 | c1ccc(Oc2ccc(-c3cncc(N4CCN(c5ccccn5)CC4)n3)cc2)cc1 [compound 341, 6′-(4-Phenoxy-phenyl)-4-pyridin-2-yl-3,4,5,6-tetrahydro-2H-[1,2′]bipyrazinyl] |
| 10 to 100 | CSc1ccccc1-c1cncc(N2CCN(c3ccccn3)CC2)n1 [compound 342, 6′-(2-Methylsulfanyl-phenyl)-4-pyridin-2-yl-3,4,5,6-tetrahydro-2H-[1,2′]bipyrazinyl] |
| 1 to 10 | CN(C)c1ccc(-c2cncc(N3CCN(c4cnccn4)CC3)n2)cc1 [compound 343, Dimethyl-[4-(2′,3′,5′,6′-tetrahydro-[2,1′;4′,2″]terpyrazin-6-yl)-phenyl]-amine] |
